US20250052985A1, “SYSTEM AND METHOD FOR QUANTITATIVE PHASE IMAGING FOR MULTI-PARAMETRIC SCREENING OF TUMOR THERAPY RESPONSE” (UNIVERSITY OF UTAH RESEARCH FOUNDATION, priority 2023, published 2025)

Experiments:
Type in all cases: cell-based
HCI-039 PDxO cells = assay: QPI on cells from patient-derived organoid HCI-039 (pleural effusion); settings: HCI-039
Experimental: In some embodiments, the QPI microscope system 110 performs QPI on cells from patient-derived organoids and direct-from-patient samples. For example, the electronic controller 155 analyzes data on cells from a set of 5 organoids representing samples collected from two patients, as illustrated by a workflow 3400 in FIG. 24. The workflow 3400 is an experiment workflow illustrating how assays are analyzed by the QPI microscope system 110. In some embodiments, the QPI microscope system 110 images cells for 48 h, and uses an automatic segmentation algorithm, via the electronic controller 155, to identify individual cells from background, as shown in images 3405 and 3410 of FIG. 24. […] The electronic controller 155 determines the mass of each cell by summing the cell mass over the segmented area. In some embodiments, plots of mass over time reveal single cell growth rates, as shown by graph 3415 of FIG. 24. The graph 3415 is a mass vs. time plot showing DMSO treated cells growing cells at a typical location. Cells outlined in green are shown as green on the plot, other growing cells are shown in purple. The electronic controller 155 determine the specific growth rate (SGR) by fitting a line to time-series mass measurements and normalizing by an initial mass predicted by the fit to account for the effect of cell size on growth rate. The electronic controller 155 fits SGR as a function of dose to a sigmoidal dose response curve using a 3-parameter Hill model to extract dose response measurements, as shown by graph 3420 of FIG. 24. […] In some embodiments, EC50 measured by the QPI microscope system 110 is strongly concordant with gold standard techniques such as CTG over 27 conditions (e.g., 9 compounds, 3 breast cancer cell lines). […] As with cell line data, QPI data on cells from PDxO resolves differences in temporal dynamics of response to therapy, as shown in graph 3425 of FIG. 24. […] In some embodiments, the electronic controller 155 is configured to determine a drug response of each of the plurality of treatment samples from patient derived organoids. […]

HCI-038 PDxO cells = assay: QPI on cells from patient-derived organoid HCI-038 (bone metastasis); settings: HCI-038
Experimental: In some embodiments, the QPI microscope system 110 performs QPI on cells from patient-derived organoids and direct-from-patient samples. For example, the electronic controller 155 analyzes data on cells from a set of 5 organoids representing samples collected from two patients, as illustrated by a workflow 3400 in FIG. 24. The workflow 3400 is an experiment workflow illustrating how assays are analyzed by the QPI microscope system 110. In some embodiments, the QPI microscope system 110 images cells for 48 h, and uses an automatic segmentation algorithm, via the electronic controller 155, to identify individual cells from background, as shown in images 3405 and 3410 of FIG. 24. […] The electronic controller 155 determines the mass of each cell by summing the cell mass over the segmented area. In some embodiments, plots of mass over time reveal single cell growth rates, as shown by graph 3415 of FIG. 24. The graph 3415 is a mass vs. time plot showing DMSO treated cells growing cells at a typical location. Cells outlined in green are shown as green on the plot, other growing cells are shown in purple. […] In some embodiments, EC50 measured by the QPI microscope system 110 is strongly concordant with gold standard techniques such as CTG over 27 conditions (e.g., 9 compounds, 3 breast cancer cell lines). […]

HCI-037 PDxO cells = assay: QPI on cells from patient-derived organoid HCI-037 (primary lesion); settings: HCI-037
Experimental: In some embodiments, the QPI microscope system 110 performs QPI on cells from patient-derived organoids and direct-from-patient samples. For example, the electronic controller 155 analyzes data on cells from a set of 5 organoids representing samples collected from two patients, as illustrated by a workflow 3400 in FIG. 24. The workflow 3400 is an experiment workflow illustrating how assays are analyzed by the QPI microscope system 110. In some embodiments, the QPI microscope system 110 images cells for 48 h, and uses an automatic segmentation algorithm, via the electronic controller 155, to identify individual cells from background, as shown in images 3405 and 3410 of FIG. 24. […] The electronic controller 155 determines the mass of each cell by summing the cell mass over the segmented area. In some embodiments, plots of mass over time reveal single cell growth rates, as shown by graph 3415 of FIG. 24. The graph 3415 is a mass vs. time plot showing DMSO treated cells growing cells at a typical location. Cells outlined in green are shown as green on the plot, other growing cells are shown in purple. The electronic controller 155 determine the specific growth rate (SGR) by fitting a line to time-series mass measurements and normalizing by an initial mass predicted by the fit to account for the effect of cell size on growth rate. The electronic controller 155 fits SGR as a function of dose to a sigmoidal dose response curve using a 3-parameter Hill model to extract dose response measurements, as shown by graph 3420 of FIG. 24. […] In some embodiments, EC50 measured by the QPI microscope system 110 is strongly concordant with gold standard techniques such as CTG over 27 conditions (e.g., 9 compounds, 3 breast cancer cell lines). […] As with cell line data, QPI data on cells from PDxO resolves differences in temporal dynamics of response to therapy, as shown in graph 3425 of FIG. 24. […] In some embodiments, the electronic controller 155 is configured to determine a drug response of each of the plurality of treatment samples from patient derived organoids.
The graphs 3500 includes graph A of the graphs 3500 showing normalized mass vs. time for HCI-037 (primary), HCI-038 (metastatic), and HCI-039 (pleural effusion) showing reduction in growth as concentration increases. Graphs B, C, D, and E of the graphs 3500 show dose response plots showing the differential response between different disease models. Graphs F, G, H, and I of the graphs 3500 show Hellinger distance vs. time plots showing the time of response for the different models treated with various therapies. In some embodiments, HCI-037, HCI-038, and HCI-039, PDxO models are used that are derived from primary lesion, bone metastasis, and pleural effusion, respectively, at different time points from a single patient during the course of treatment and progressive disease. In some embodiments, the electronic controller 155 is configured to determine a difference drug response from patient derived organoids. In some embodiments, the patient derived organoids are tumor organoids.

## CC[C@H](NC(=O)[C@H](C)NC)C(=O)N1C[C@@H](O)C[C@H]1Cc1c(-c2[nH]c3cc(F)ccc3c2C[C@@H]2C[C@H](O)CN2C(=O)[C@H](CC)NC(=O)[C@H](C)NC)[nH]c2cc(F)ccc12 [birinapant]
HCI-039 PDxO cells
  EC50 compared with HCI-037: similar
  time of response compared with HCI-037: much faster time of response
HCI-038 PDxO cells
  response: no response
HCI-037 PDxO cells
  EC50 compared with HCI-039: similar
  depth of response compared with HCI-039: much greater depth of response
